Data as given in article PMC3201719 (ACS medicinal chemistry letters, 2011).
Non-standard residues stand in square brackets, D forms with d. Residues, ends and D or L forms follow the SMILES beside them. *: point of attachment. Hydrocinnamoyl = O=C(CCc1ccccc1)*; pS = N[C@@H](COP(=O)(O)O)C(=O)O; X2 = COc1ccc(CC(=O)*)cc1OC

Biological target: BRCT-BRCA1 (Homo sapiens, UniProt P38398)
Test: Fluorescence polarization
Type: binding

Sequence of BRCT-BRCA1 (P38398 1646-1859 limits assumed): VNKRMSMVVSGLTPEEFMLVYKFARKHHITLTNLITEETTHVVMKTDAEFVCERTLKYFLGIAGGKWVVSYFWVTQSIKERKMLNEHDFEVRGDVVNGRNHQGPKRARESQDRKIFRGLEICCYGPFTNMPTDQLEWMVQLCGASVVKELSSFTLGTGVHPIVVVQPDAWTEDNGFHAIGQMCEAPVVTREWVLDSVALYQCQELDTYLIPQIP

| fold loss of activity compared to 9 (compared to mimic 9) | SMILES | fold higher activity than parent peptide 4 (compared to parent peptide 4) |
| --- | --- | --- |
|  | CC(C)[C@H](NC(=O)[C@@H]1CCCN1C(=O)[C@H](COP(=O)(O)O)NC(=O)CCc1ccccc1)C(=O)N[C@@H](Cc1ccccc1)C(=O)O [compound 10] (Hydrocinnamoyl-[pS]PVF-OH; N-terminus assumed) | ~ 3 fold |
| ~ 150 fold | COc1ccc(CC(=O)N[C@@H](COP(=O)(O)O)C(=O)N2CCC[C@H]2C(=O)N[C@H](C(=O)N[C@@H](Cc2ccccc2)C(=O)O)C(C)C)cc1OC [compound 13] (X2-[pS]PVF-OH; N-terminus assumed) |  |
